According to patent US7271165B2, “Rifamycin analogs and uses thereof” (priority 2003, dated 2007):
Converted amounts (≈) assume the structure as drawn. Like-named read-outs stand apart in the source and are kept apart here.

Assays:
[1] = tested on: S. aureus; experiment: MIC assay, S. aureus; format: cell-based, Staphylococcus aureus
[2] = tested on: S. pneumo.; experiment: MIC assay, S. pneumo.; format: cell-based, Streptococcus pneumoniae
[3] = tested on: H. flu; format: cell-based, H. influenza
[4] = tested on: E coli; experiment: MIC assay, E coli; format: cell-based
[5] = tested on: E. faecalis; experiment: MIC assay, E. faecalis; format: cell-based, Enterococcus faecalis

Compound | MIC (μg/mL) S. aureus [1] [µg/mL] | MIC (μg/mL) S. pneumo. [2] [µg/mL] | MIC (μg/mL) H. flu ([3]; H. flu) [µg/mL] | MIC (μg/mL) E coli [4] [µg/mL] | MIC (μg/mL) E. faecalis [5] [µg/mL] | MIC (μg/mL) H. flu [3] [µg/mL]
CCNC(=O)NC1CCN(c2cc(O)c3nc4c5c6c7c(C)c(O)c5c(=O)c(c-4oc3c2)NC(=O)C(C)=CC=CC(C)C(O)C(C)C(O)C(C)C(O)C(C)C(OC)C=COC(C)(O7)C6=O)CC1 (stereo not drawn) [Compound 37, 25-O-deacetyl-3′-hydroxy-5′-[4-ethyluryl-1-piperidinyl]benzoxazinorifamycin] | 0.03 (≈ 0.0323 µM) | 0.004 (≈ 0.00431 µM) | 0.25 (≈ 0.269 µM) | >8 | 2 (≈ 2.16 µM) | –
CCOC(=O)NCC1CCN(c2cc(O)c3nc4c5c6c7c(C)c(O)c5c(=O)c(c-4oc3c2)NC(=O)C(C)=CC=CC(C)C(O)C(C)C(O)C(C)C(O)C(C)C(OC)C=COC(C)(O7)C6=O)CC1 (stereo not drawn) [Compound 60, 25-O-deacetyl-3′-hydroxy-5′-[4-ethylcarbamylmethyl-1-piperidinyl]benzoxazinorifamycin] | 0.008 (≈ 0.00848 µM) | 0.0005 (≈ 0.00053 µM) | 0.06 (≈ 0.0636 µM) | >8 | 0.5 (≈ 0.53 µM) | –
CCOC(=O)NC1CCN(c2cc(O)c3nc4c5c6c7c(C)c(O)c5c(=O)c(c-4oc3c2)NC(=O)/C(C)=C\C=C\[C@H](C)[C@H](O)[C@@H](C)[C@@H](O)[C@@H](C)[C@H](O)[C@H](C)[C@@H](OC)/C=C/O[C@@](C)(O7)C6=O)CC1 [Compound 3, 25-O-deacetyl-3′-hydroxy-5′-(4-ethylcarbamyl-1-piperidinyl)benzoxazinorifamycin] | 0.03 (≈ 0.0323 µM) | 0.0005 (≈ 0.000538 µM) | 0.25 (≈ 0.269 µM) | 4 (≈ 4.31 µM) | 0.12 (≈ 0.129 µM) | –
COC1C=COC2(C)Oc3c(C)c(O)c4c(=O)c(c5oc6cc(N7CCC(NC(=O)N8CCN(C)CC8)CC7)cc(O)c6nc-5c4c3C2=O)NC(=O)C(C)=CC=CC(C)C(O)C(C)C(O)C(C)C(OC(C)=O)C1C (stereo not drawn) [Compound 50, 3′-hydroxy-5′-[4-(4-methylpiperazinylcarbonyl)amino-1-piperidinyl]benzoxazinorifamycin] | 0.03 (≈ 0.0293 µM) | 0.00012 (≈ 0.000117 µM) | 0.5 (≈ 0.488 µM) | >8 | 4 (≈ 3.9 µM) | –
COC1C=COC2(C)Oc3c(C)c(O)c4c(=O)c(c5oc6cc(N7CCCC7)c(C)c(C)c6nc-5c4c3C2=O)NC(=O)C(C)=CC=CC(C)C(O)C(C)C(O)C(C)C(O)C1C (stereo not drawn) [Compound 117] | 0.5 (≈ 0.595 µM) | 0.06 (≈ 0.0714 µM) | 1 (≈ 1.19 µM) | >8 | 4 (≈ 4.76 µM) | –
COC1C=COC2(C)Oc3c(C)c(O)c4c(=O)c(c5sc6cc(N7CCN8CCCC8C7)ccc6nc-5c4c3C2=O)NC(=O)C(C)=CC=CC(C)C(O)C(C)C(O)C(C)C(OC(C)=O)C1C [Compound 76, 5′-[(8aS)octahydropyrrolo [1,2-a]pyrazin-2-yl]benzthiazinorifamycin] | 0.008 (≈ 0.00865 µM) | 0.00025 (≈ 0.00027 µM) | 0.25 (≈ 0.27 µM) | 4 (≈ 4.32 µM) | 0.5 (≈ 0.54 µM) | –
COC1C=COC2(C)Oc3c(C)c(O)c4c(=O)c(c5oc6cc(N7CCN8CCCC8C7)cc(O)c6nc-5c4c3C2=O)NC(=O)C(C)=CC=CC(C)C(O)C(C)C(O)C(C)C(O)C1C (stereo not drawn) [Compound 83] | 0.002 (≈ 0.00226 µM) | 0.00025 (≈ 0.000283 µM) | 0.25 (≈ 0.283 µM) | 4 (≈ 4.53 µM) | 0.03 (≈ 0.034 µM) | –
COC1C=COC2(C)Oc3c(C)c(O)c4c(=O)c(c5oc6cc(N7CCC(N)CC7)cc(O)c6nc-5c4c3C2=O)NC(=O)C(C)=CC=CC(C)C(O)C(C)C(O)C(C)C(O)C1C (stereo not drawn) [Compound 39, 25-O-deacetyl-3′-hydroxy-5′-[4-amino-1-piperidinyl]benzoxazinorifamycin] | 0.03 (≈ 0.035 µM) | 0.001 (≈ 0.00117 µM) | 0.25 (≈ 0.292 µM) | >8 | 2 (≈ 2.33 µM) | –
COC1C=COC2(C)Oc3c(C)c(O)c4c(=O)c(c5oc6cc(N7CCOCC7)cc(O)c6nc-5c4c3C2=O)NC(=O)C(C)=CC=CC(C)C(O)C(C)C(O)C(C)C(O)C1C (stereo not drawn) [Compound 128] | 0.004 (≈ 0.00474 µM) | 0.00025 (≈ 0.000296 µM) | – | >8 | 0.06 (≈ 0.0711 µM) | 0.12 (≈ 0.142 µM)
CCOC(=O)NC1C2CN(c3cc(O)c4nc5c6c7c8c(C)c(O)c6c(=O)c(c-5oc4c3)NC(=O)C(C)=CC=CC(C)C(O)C(C)C(O)C(C)C(OC(C)=O)C(C)C(OC)C=COC(C)(O8)C7=O)CC21 (stereo not drawn) [Compound 21] | 0.004 (≈ 0.00413 µM) | 0.001 (≈ 0.00103 µM) | 0.5 (≈ 0.516 µM) | 4 (≈ 4.13 µM) | 0.12 (≈ 0.124 µM) | –
COC1C=COC2(C)Oc3c(C)c(O)c4c(=O)c(c5oc6cc(N7CC8C(C7)C8N(C)C)cc(O)c6nc-5c4c3C2=O)NC(=O)C(C)=CC=CC(C)C(O)C(C)C(O)C(C)C(OC(C)=O)C1C [Compound 53, 3′-hydroxy-5′-[6-N,N-dimethylamino-(1R,5S)-3-azabicyclo[3.1.0]hex-3-yl]benzoxazinorifamycin] | 0.06 (≈ 0.0649 µM) | 0.008 (≈ 0.00865 µM) | 2 (≈ 2.16 µM) | >8 | 4 (≈ 4.32 µM) | –
CO[C@H]1/C=C/O[C@@]2(C)Oc3c(C)c(O)c4c(=O)c(c5oc6cc(N7CCC(NS(C)(=O)=O)CC7)cc(O)c6nc-5c4c3C2=O)NC(=O)/C(C)=C\C=C\[C@H](C)[C@H](O)[C@@H](C)[C@@H](O)[C@@H](C)[C@H](O)[C@@H]1C [Compound 27] | 0.015 (≈ 0.016 µM) | 0.001 (≈ 0.00107 µM) | 0.12 (≈ 0.128 µM) | >8 | 1 (≈ 1.07 µM) | –
COC1C=COC2(C)Oc3c(C)c(O)c4c(=O)c(c5oc6cc(N7CC(C)NC(C)C7)cc(O)c6nc-5c4c3C2=O)NC(=O)C(C)=CC=CC(C)C(O)C(C)C(O)C(C)C(O)C1C (stereo not drawn) [Compound 87] | 0.008 (≈ 0.00918 µM) | 0.0005 (≈ 0.000574 µM) | 0.25 (≈ 0.287 µM) | 4 (≈ 4.59 µM) | 0.06 (≈ 0.0689 µM) | –
CCOC(=O)NCC1CCN(c2cc(O)c3nc4c5c6c7c(C)c(O)c5c(=O)c(c-4oc3c2)NC(=O)C(C)=CC=CC(C)C(O)C(C)C(O)C(C)C(OC(C)=O)C(C)C(OC)C=COC(C)(O7)C6=O)CC1 (stereo not drawn) [Compound 51] | 0.06 (≈ 0.0609 µM) | 0.002 (≈ 0.00203 µM) | 0.25 (≈ 0.254 µM) | 8 (≈ 8.12 µM) | 8 (≈ 8.12 µM) | –
COC1C=COC2(C)Oc3c(C)c(O)c4c(=O)c(c5oc6cc(N7CC8C(N)C8C7)cc(O)c6nc-5c4c3C2=O)NC(=O)C(C)=CC=CC(C)C(O)C(C)C(O)C(C)C(O)C1C [Compound 20, 25-O-deacetyl-3′-hydroxy-5′-[6-amino-(1R,5S)-3-azabicyclo[3.1.0]hex-3-yl]benzoxazinorifamycin] | 2 (≈ 2.34 µM) | 1 (≈ 1.17 µM) | >8 | >8 | >8 | –
COC1C=COC2(C)Oc3c(C)c(O)c4c(=O)c(c5oc6cc(N7CCC(CNC(C)=O)CC7)cc(O)c6nc-5c4c3C2=O)NC(=O)C(C)=CC=CC(C)C(O)C(C)C(O)C(C)C(OC(C)=O)C1C (stereo not drawn) [Compound 55, 3′-hydroxy-5′-[4-acetylaminomethyl-1-piperidinyl]benzoxazinorifamycin] | 0.008 (≈ 0.00838 µM) | 0.00025 (≈ 0.000262 µM) | 0.5 (≈ 0.524 µM) | 8 (≈ 8.38 µM) | 1 (≈ 1.05 µM) | –
CO[C@H]1/C=C/O[C@@]2(C)Oc3c(C)c(O)c4c(=O)c(c5oc6cc(N7C[C@@H]8CCCN[C@@H]8C7)cc(O)c6nc-5c4c3C2=O)NC(=O)/C(C)=C\C=C\[C@H](C)[C@H](O)[C@@H](C)[C@@H](O)[C@@H](C)[C@H](OC(C)=O)[C@@H]1C [Compound 5, 3′-hydroxy-5′-[(4aS,7aS)-octahydro-6H-pyrrolo[3,4-b]pyridin-6-yl]benzoxazinorifamycin] | 0.015 (≈ 0.0162 µM) | 0.00025 (≈ 0.00027 µM) | 2 (≈ 2.16 µM) | 8 (≈ 8.65 µM) | 0.5 (≈ 0.541 µM) | –
CCc1cc2nc3c4c5c6c(C)c(O)c4c(=O)c(c-3oc2cc1N1CCCCC1)NC(=O)/C(C)=C\C=C\[C@H](C)[C@H](O)[C@@H](C)[C@@H](O)[C@@H](C)[C@H](O)[C@H](C)[C@@H](OC)/C=C/O[C@@](C)(O6)C5=O [Compound 108] | 1 (≈ 1.17 µM) | 0.12 (≈ 0.141 µM) | 2 (≈ 2.34 µM) | 1 (≈ 1.17 µM) | 4 (≈ 4.68 µM) | –
